pIC50: −log10 of the molar value. Counter-ions that a name gives are not always drawn. Like-named read-outs stand apart in the source and are kept apart here. Each block holds one compound with its values, some of them ahead of it.
How the values were obtained:
vertebral blood flow = experiment: Effect on vertebral blood flow; assay type: in vivo, Adult mongrel dogs; details: for ED100: dose required to obtain 100% of the increase of blood flow by 100 µg of papaverine hydrochloride, injected in the vertebral artery, anesthetized dogs; for T 1/2: half-life measured as the duration of effects on vertebral blood flow
Protocol: Pharmacological experiment 3: Effect on vertebral blood flow Adult mongrel dogs were anesthetized with sodium pentobarbital (25 mg/kg, i.v.). The right vertebral artery was perfused and the blood flow was measured. Test compound was injected in the vertebral artery. […] Half-life (T 1/2, minute) was measured as the duration of effects.

Trachea of guinea pig = experiment: Anticholinergic activity (ACh-contracted tracheal strip chain preparation); details: for pIC50: Cavia porcellus, read-out: 50% inhibitory concentration (IC50) on ACh-induced contraction; for relaxant effect on ACh-contracted preparation: 10^-7-10^-5M
Protocol: (§1) Each of 30 mg/kg of test compounds A and Q was orally administered to five male spontaneously hypertensive rats and the blood pressure was measured by the tail cuff method. The blood pressure lowering value after 1 hour administration of test compound A was 48 mmHg and that value after 5 hours administration of test compound Q was 64 mmHg. Pharmacological experiment 6: Anticholinergic activity
Trachea of guinea pig, weighing 380-550 g, was isolated and prepared its strip chain preparation. The preparation was mounted in organ bath filled with Krebs-Henseleit solution gassed with 95% 02 and 5% CO2. Length of the preparation was measured by isometric transducer (MEC, ME-4012). The preparation was contracted by 10^-6 M of acetylcholine (ACh) and then, test compounds were added cumulatively into the bath to observe relaxant effect.
(§2) Pharmacological experiment 7: Toxicity

[1] = system: spontaneously hypertensive rats; experiment: Effect on hypertension (tail cuff method); assay type: in vivo, male spontaneously hypertensive rats; details: 30 mg/kg orally
Protocol: Pharmacological experiment 5: Effect on hypertension
as §1

liver mitochondria = experiment: Effect on lipid peroxidation (malondialdehyde formation in liver mitochondria, thiobarbituric acid method); assay type: biochemical, Male Sprague-Dawley rats; details: 50% inhibitory concentration on the formation of malondialdehyde; ascorbic acid, ferrous sulfate; 25°C for 30 minutes
Protocol: Pharmacological experiment 4: Effect on lipid peroxidation
Male Sprague-Dawley rats weighing 300-350 g were used. According to the method of Shimada et al described in Biochim. Biophys. Acta, vol. 572, 531 (1979), the liver mitochondria were isolated and ascorbic acid, ferrous sulfate, potassium chloride and Tris-HC1 buffer were added. To the solution was added test compound dissolved in dimethyl sulfoxide, and the mixture was incubated at 25°C for 30 minutes. The amount of malondialdehyde was determined by the thiobarbituric acid method and the 50% inhibitory concentration (IC50, µmol) of test compound on the formation of malondialdehyde was measured.

coronary blood flow = experiment: Effect on coronary blood flow; assay type: in vivo, Adult mongrel dogs; details: for ED50: dose required to increase the coronary blood flow by a half of the effects of nifedipine, injected into the coronary artery, anesthetized dogs; for T 1/2: half-life measured as the duration of effects on coronary blood flow
Protocol: Pharmacological experiment 2: Effect on coronary blood flow Adult mongrel dogs were anesthetized with sodium pentobarbital (30 mg/kg, i.v.). According to the method of Yago et al described in Folia Pharmacol. Japon, vol. 57, 380 (1961), the left coronary artery was perfused and its blood flow was measured. […] The half-life (T 1/2, minute) was measured as the duration of effects.

ddY strain mice = assay type: in vivo
From the text: as §2
Test compounds A, B, C, E and S were orally administered to five ddY strain mice.

[2] = preparation contracted by 10^-6 M of acetylcholine (ACh), cumulative addition
[3] = oral dose of 1000 mg/kg, five mice

pIC50 (Trachea of guinea pig; [2]): 5.64
SMILES: COC(=O)C1=C(C)Nc2ncc(CN3CCCC3)n2C1c1cccc([N+](=O)[O-])c1 (centres unmarked) [Compound P, Methyl 7-methyl-5-(3-nitrophenyl)-3-(1-pyrrolidinylmethyl)-5,8-dihydroimidazo[1,2-a] pyrimidine-6-carboxylate dihydrochloride]
ED100 (vertebral blood flow): 6 µg | T 1/2 (vertebral blood flow): 0.6 min

SMILES: CCN(CC)Cc1cnc2n1C(c1cccc([N+](=O)[O-])c1)C(C(=O)OC)=C(C)N2 (centres unmarked) [Compound A, Methyl 3-diethylaminomethyl-7-methyl-5-(3-nitrophenyl)-5,8-dihydroimidazo[l,2-a]pyrimidine-6-carboxylate hydrochloride]
ED100 (vertebral blood flow): 2 µg | T 1/2 (vertebral blood flow): 0.9 min | blood pressure lowering value ([1]; after 1 hour): 48 mmHg | relaxant effect on ACh-contracted preparation (Trachea of guinea pig): relaxed ACh-contracted preparation in a concentration-dependent manner | pIC50 (Trachea of guinea pig; [2]): 5.80 | pIC50 (liver mitochondria): 4.30 | ED50 (coronary blood flow): 2 µg | T 1/2 (coronary blood flow): 1.0 min | survival (ddY strain mice; mouse, in vivo, po, 1000 mg/kg): All mice were survived

pIC50 (liver mitochondria): 6.15
SMILES: CCOC(=O)C1=C(C)Nc2ncc(N(C)Cc3ccccc3)n2C1c1cccc([N+](=O)[O-])c1 (centres unmarked) [Compound R, Ethyl 7-methyl-5-(3-nitrophenyl)-3-(N-benzyl-N-methyl)amino-5,8-dihydroimidazo[1,2-a]pyrimidine-6-carboxylate]

SMILES: CCN(CC)Cc1cnc2n1C(c1cccc([N+](=O)[O-])c1)C(C(=O)OCCOC)=C(C)N2 (centres unmarked) [Compound J, 2-Methoxyethyl 3-diethylaminomethyl-7-methyl-5-(3-nitrophenyl)-5,8-dihydroimidazo[1,2-a]pyrimidine-6-carboxylate]
ED50 (coronary blood flow): 5 µg | T 1/2 (coronary blood flow): 1.7 min

SMILES: CCN(CC)Cc1cnc2n1C(c1cccc([N+](=O)[O-])c1)C(C(=O)OC(CN1CCCCC1)c1ccccc1)=C(C)N2 (single isomer, unassigned) [Compound Q, 2-Piperidino-1-phenylethyl 3-diethylaminomethyl-7-methyl-5-(3-nitrophenyl)-5,8-dihydroimidazo [1,2-a]pyrimidine-6-carboxylate (β-form)]
ED100 (vertebral blood flow): 18 µg | T 1/2 (vertebral blood flow): 4.0 min | blood pressure lowering value ([1]; after 5 hours): 64 mmHg

SMILES: CCOC(=O)C1=C(C)Nc2ncc(CN(CC)CC)n2C1c1ccccc1[N+](=O)[O-].Cl.Cl.O (centres unmarked) [Compound I, Ethyl 3-diethylaminomethyl-7-methyl-5-(2-nitrophenyl)-5,8-dihydroimidazo[1,2-a]pyrimidine-6-carboxylate dihydrochloride monohydrate]
ED50 (coronary blood flow): 10 µg | T 1/2 (coronary blood flow): 2.0 min

SMILES: CCOC(=O)C1=C(C)Nc2ncc(CNCc3ccccc3)n2C1c1cccc([N+](=O)[O-])c1.Cl.Cl (centres unmarked) [Compound N, Ethyl 3-benzylaminomethyl-7-methyl-5-(3-nitrophenyl)-5,8-dihydroimidazo[1,2-a]pyrimidine-6-carboxylate dihydrochloride]
ED100 (vertebral blood flow): 10 µg | T 1/2 (vertebral blood flow): 0.7 min

SMILES: COC(=O)C1=C(C)Nc2ncc(CN(C(C)C)C(C)C)n2C1c1cccc([N+](=O)[O-])c1 (centres unmarked) [Compound K, Methyl 3-diisopropylaminomethyl-7-methyl-5-(3-nitrophenyl)-5,8-dihydroimidazo[1,2-a]pyrimidine-6-carboxylate]
ED50 (coronary blood flow): 6 µg | T 1/2 (coronary blood flow): 1.5 min

pIC50 (liver mitochondria): 5.70
SMILES: CCOC(=O)C1=C(C)Nc2ncc(N(CC)CC)n2C1c1cccc([N+](=O)[O-])c1 (centres unmarked) [Compound F, Ethyl 3-diethylamino-7-methyl-5-(3-nitrophenyl)-5,8-dihydroimidazo[1,2-a]pyrimidine-6-carboxylate]
ED50 (coronary blood flow): 12 µg | T 1/2 (coronary blood flow): 1.0 min

SMILES: COC(=O)C1=C(C)Nc2ncc(COC(C)C)n2C1c1cccc([N+](=O)[O-])c1 (centres unmarked) [Compound L, Methyl 3-isopropoxymethyl-7-methyl-5-(3-nitrophenyl)-5,8-dihydroimidazo[1,2-a]pyrimidine-6-carboxylate]
ED50 (coronary blood flow): 5 µg | T 1/2 (coronary blood flow): 1.0 min

pIC50 (liver mitochondria): 6.70
SMILES: CCOC(=O)C1=C(C)Nc2ncc(N3CCCC3)n2C1c1cccc([N+](=O)[O-])c1 (stereo not drawn) [Compound D, Ethyl 7-methyl-5-(3-nitrophenyl)-3-(l-pyrrolidinyl)-5,8-dihydroimidazo[1,2-a]pyrimidine-6-carboxylate]
ED50 (coronary blood flow): 8 µg | T 1/2 (coronary blood flow): 1.3 min

SMILES: CCN(CC)Cc1cnc2n1C(c1ccccc1C(F)(F)F)C(C(=O)OC)=C(C)N2 (centres unmarked) [Compound E, Methyl 3-diethylaminomethyl-7-methyl-5-(2-trifluoromethylphenyl)-5,8-dihydroimidazo[1,2-a] pyrimidine-6-carboxylate]
pIC50 (liver mitochondria): 4.82 | ED50 (coronary blood flow): 5 µg | T 1/2 (coronary blood flow): 1.0 min | survival (ddY strain mice; [3]): All mice were survived

SMILES: CCOC(=O)C1=C(C)Nc2ncc(CN(CC)CC)n2C1c1cccc([N+](=O)[O-])c1 (centres unmarked) [Compound B, Ethyl 3-diethylaminomethyl-7-methyl-5-(3-nitrophenyl)-5,8-dihydroimidazo[l,2-a]pyrimidine-6-carboxylate hydrochloride]
ED100 (vertebral blood flow): 10 µg | T 1/2 (vertebral blood flow): 0.8 min | relaxant effect on ACh-contracted preparation (Trachea of guinea pig): relaxed ACh-contracted preparation in a concentration-dependent manner | pIC50 (Trachea of guinea pig; [2]): 5.40 | pIC50 (liver mitochondria): 4.70 | ED50 (coronary blood flow): 3 µg | T 1/2 (coronary blood flow): 1.5 min | survival (ddY strain mice; mouse, in vivo, po, 1000 mg/kg): All mice were survived

SMILES: COC(=O)C1=C(C)Nc2ncc(CNc3ccccc3C(F)(F)F)n2C1c1cccc([N+](=O)[O-])c1 (centres unmarked) [Compound S, Methyl 7-methyl-5-(3-nitrophenyl)-3-(2-trifluoromethylphenyl)aminomethyl-5,8-dihydroimidazo[1,2-a]pyrimidine-6-carboxylate]
survival (ddY strain mice; [3]): All mice were survived

SMILES: CCOC(=O)C1=C(C)Nc2ncc([N+](=O)[O-])n2C1c1ccccc1C(F)(F)F (centres unmarked) [Compound M, Ethyl 7-methyl-3-nitro-5-(2-trifluoromethylphenyl)-5,8-dihydroimidazo[1,2-a]pyrimidine-6-carboxylate]
ED50 (coronary blood flow): 5 µg | T 1/2 (coronary blood flow): 1.0 min

pIC50 (liver mitochondria): 5.00
SMILES: CCOCc1cnc2n1C(c1cccc([N+](=O)[O-])c1)C(C(=O)OCC)=C(C)N2 (centres unmarked) [Compound G, Ethyl 3-ethoxymethyl-7-methyl-5-(3-nitrophenyl)-5,8-dihydroimidazo[1,2-a]pyrimidine-6-carboxylate]
ED50 (coronary blood flow): 7 µg | T 1/2 (coronary blood flow): 1.0 min

SMILES: CCCCNCc1cnc2n1C(c1cccc([N+](=O)[O-])c1)C(C(=O)OCC)=C(C)N2.Cl.Cl (centres unmarked) [Compound O, Ethyl 3-butylaminomethyl-7-methyl-5-(3-nitrophenyl)-5,8-dihydroimidazo[1,2-a]pyrimidine-6-carboxylate dihydrochloride]
ED100 (vertebral blood flow): 15 µg | T 1/2 (vertebral blood flow): 0.7 min

SMILES: CCCN(CCC)Cc1cnc2n1C(c1cccc([N+](=O)[O-])c1)C(C(=O)OC)=C(C)N2 (centres unmarked) [Compound H, Methyl 3-dipropylaminomethyl-7-methyl-5-(3-nitrophenyl)-5,8-dihydroimidazo[1,2-a]pyrimidine-6-carboxylate]
ED100 (vertebral blood flow): 2 µg | T 1/2 (vertebral blood flow): 1.0 min | ED50 (coronary blood flow): 7 µg | T 1/2 (coronary blood flow): 1.0 min

SMILES: CCOC(=O)C1=C(C)Nc2ncc(CN(C)Cc3ccccc3)n2C1c1cccc([N+](=O)[O-])c1.Cl.Cl.O (centres unmarked) [Compound C, Ethyl 3-(N-benzyl-N-methylamino)methyl-7-methyl-5-(3-nitrophenyl)-5,8-dihydroimidazo[1,2-a] pyrimidine-6-carboxylate dihydrochloride monohydrate]
ED100 (vertebral blood flow): 5 µg | T 1/2 (vertebral blood flow): 1.5 min | ED50 (coronary blood flow): 10 µg | T 1/2 (coronary blood flow): 1.5 min | survival (ddY strain mice; mouse, in vivo, po, 1000 mg/kg): All mice were survived

SMILES: CN1[C@@H]2CC[C@H]1C[C@@H](OC(=O)C(CO)c1ccccc1)C2 (some centres unmarked) [atropine, reference compound]
pIC50 (Trachea of guinea pig): 9.13
